From PMC3472068, “Roles of the different components of magnesium chelatase in abscisic acid signal transduction” (Plant Molecular Biology, 2012) come the findings set out here.

In the experiment the target is T1, CHLH (CHLH/ABAR) (Arabidopsis thaliana, UniProt Q9FNB0).
T1 construct: ORF in pFastBac HFT-B, Flag-tagged fusion, expressed in Sf9 insect cells; about 150 kDa; full length 1381 residues; amine-coupled on CM5 chip
T1 sequence (Q9FNB0 1-1381): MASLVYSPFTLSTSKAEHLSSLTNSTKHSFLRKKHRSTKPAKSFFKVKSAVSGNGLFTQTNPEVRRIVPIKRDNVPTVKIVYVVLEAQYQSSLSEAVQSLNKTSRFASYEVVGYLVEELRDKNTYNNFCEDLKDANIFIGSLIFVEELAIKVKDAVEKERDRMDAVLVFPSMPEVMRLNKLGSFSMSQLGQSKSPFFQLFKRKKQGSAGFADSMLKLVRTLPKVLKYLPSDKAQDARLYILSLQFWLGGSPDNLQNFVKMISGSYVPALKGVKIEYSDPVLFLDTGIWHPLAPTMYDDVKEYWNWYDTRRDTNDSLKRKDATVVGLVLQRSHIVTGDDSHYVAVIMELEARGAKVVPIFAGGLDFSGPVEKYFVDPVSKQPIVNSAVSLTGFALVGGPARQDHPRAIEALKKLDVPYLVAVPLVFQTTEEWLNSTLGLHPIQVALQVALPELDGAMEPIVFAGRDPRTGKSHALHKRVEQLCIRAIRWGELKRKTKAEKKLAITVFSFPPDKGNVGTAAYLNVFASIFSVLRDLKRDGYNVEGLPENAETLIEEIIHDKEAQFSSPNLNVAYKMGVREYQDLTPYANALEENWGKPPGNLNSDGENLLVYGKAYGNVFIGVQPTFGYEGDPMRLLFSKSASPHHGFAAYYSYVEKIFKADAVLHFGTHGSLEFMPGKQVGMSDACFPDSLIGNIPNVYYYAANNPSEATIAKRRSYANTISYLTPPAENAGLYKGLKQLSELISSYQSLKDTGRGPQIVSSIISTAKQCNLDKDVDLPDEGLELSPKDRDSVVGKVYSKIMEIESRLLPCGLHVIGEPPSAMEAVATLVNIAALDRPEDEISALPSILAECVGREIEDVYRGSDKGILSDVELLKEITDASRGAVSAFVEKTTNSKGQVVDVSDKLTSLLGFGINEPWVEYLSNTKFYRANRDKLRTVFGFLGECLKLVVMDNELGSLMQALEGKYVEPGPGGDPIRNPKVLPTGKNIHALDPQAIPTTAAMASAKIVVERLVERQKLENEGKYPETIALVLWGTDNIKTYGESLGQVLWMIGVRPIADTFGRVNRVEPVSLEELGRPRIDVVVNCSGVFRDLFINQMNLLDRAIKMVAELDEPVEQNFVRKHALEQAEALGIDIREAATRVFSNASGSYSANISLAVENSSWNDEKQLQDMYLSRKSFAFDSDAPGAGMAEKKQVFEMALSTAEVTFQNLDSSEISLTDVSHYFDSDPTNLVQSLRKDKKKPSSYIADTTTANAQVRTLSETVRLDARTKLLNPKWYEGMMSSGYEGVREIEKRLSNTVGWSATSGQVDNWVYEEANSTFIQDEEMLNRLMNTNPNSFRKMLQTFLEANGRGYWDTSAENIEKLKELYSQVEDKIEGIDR
Put plainly: SPR (Biacore T200, CM5 chip, protein immobilized by amine coupling), steady-state fit. It counts as binding. Particulars: HBS-EP running buffer with EDTA, pH 7.4, 25 °C, 6-100 μM analyte; unreliable (authors attribute the low affinity to technical limits of SPR).

The molecule `CC1=CC(=O)CC(C)(C)C1(O)/C=C/C(C)=C\C(=O)O` (stereo in doubt) [(+)-ABA] returned an equilibrium dissociation constant (Kd) of 20 µM.
